From paper PMC10313671, “Accelerating the prediction and discovery of peptide hydrogels with human-in-the-loop” (Nature Communications, 2023)
Where a SMILES comes first, the peptide text is derived from it.

Test: Peptide hydrogel formation, vial-inverting method
Assay type: physicochemical
Set-up: key to EXP / GELATION: 0: no hydrogel; 1: hydrogel
Conditions: 120 mM peptide (highest tested) in ultrapure water; pH 6.5-8.5 (1 N NaOH), ultrasonication, standing 48 h; vial-inverting method; precipitate, sol, suspension = no gel
Procedure, shortened: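 Gelation judged by vial inversion, a non-flowing self-supporting sample counting as hydrogel, after 48 h standing. Peptide in water at 30 mM first, escalating to 60, 90 and 120 mM if no gel; pH set to 6.5–8.5 by stepwise 1 N NaOH, each step sonicated briefly.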

| Structure (SMILES) | State |
| --- | --- |
| O=C(O)[C@H](Cc1ccc(O)cc1)NC(=O)[C@H](Cc1c[nH]c2ccccc12)NC(=O)[C@H](Cc1c[nH]c2ccccc12)NC(=O)[C@@H]1CCCN1 [PWWY] (H-PWWY-OH) | sol |
| O=C(O)[C@H](Cc1c[nH]c2ccccc12)NC(=O)[C@H](Cc1ccc(O)cc1)NC(=O)[C@H](Cc1c[nH]c2ccccc12)NC(=O)[C@@H]1CCCN1 [PWYW] (H-PWYW-OH) | gel |
| CC[C@H](C)[C@H](N)C(=O)N[C@H](C(=O)N[C@@H](Cc1ccccc1)C(=O)N[C@@H](Cc1c[nH]c2ccccc12)C(=O)O)C(C)C [IVFW] (H-IVFW-OH) | gel |
| C[C@@H](O)[C@H](N)C(=O)NCC(=O)N[C@@H](Cc1ccccc1)C(=O)N[C@@H](Cc1ccccc1)C(=O)O [TGFF] (H-TGFF-OH) | gel |
| C[C@H](NC(=O)[C@@H](N)CS)C(=O)N[C@@H](Cc1ccc(O)cc1)C(=O)N[C@@H](Cc1c[nH]c2ccccc12)C(=O)O [CAYW] (H-CAYW-OH) | precipitate |
| CC(C)C[C@H](N)C(=O)NCC(=O)N[C@H](C(=O)N[C@@H](Cc1ccccc1)C(=O)O)C(C)C [LGVF] (H-LGVF-OH) | sol |
| CC[C@H](C)[C@H](NC(=O)[C@H](Cc1ccc(O)cc1)NC(=O)[C@@H]1CCCN1C(=O)[C@@H](N)Cc1ccc(O)cc1)C(=O)O [YPYI] (H-YPYI-OH) | sol |
| CC[C@H](C)[C@H](N)C(=O)N[C@@H](CCCNC(=N)N)C(=O)N[C@H](C(=O)N[C@@H](Cc1c[nH]c2ccccc12)C(=O)O)C(C)C [IRVW] (H-IRVW-OH) | suspension |
| N[C@@H](Cc1c[nH]c2ccccc12)C(=O)N[C@@H](Cc1c[nH]c2ccccc12)C(=O)N[C@@H](CS)C(=O)N1CCC[C@H]1C(=O)O [WWCP] (H-WWCP-OH) | precipitate |
| CC[C@H](C)[C@H](N)C(=O)N[C@@H](Cc1c[nH]cn1)C(=O)N[C@@H](Cc1ccccc1)C(=O)N[C@H](C(=O)O)C(C)C [IHFV] (H-IHFV-OH) | sol |
| CC(C)C[C@H](N)C(=O)N[C@H](C(=O)N[C@@H](Cc1c[nH]c2ccccc12)C(=O)N[C@@H](Cc1ccccc1)C(=O)O)[C@@H](C)O [LTWF] (H-LTWF-OH) | sol |
| CC(C)C[C@H](N)C(=O)N[C@@H](CCCNC(=N)N)C(=O)N[C@@H](Cc1ccccc1)C(=O)N[C@@H](Cc1c[nH]cn1)C(=O)O [LRFH] (H-LRFH-OH) | sol |
| CSCC[C@H](NC(=O)[C@H](CCSC)NC(=O)[C@H](CCSC)NC(=O)[C@@H](N)CCSC)C(=O)O [MMMM] (H-MMMM-OH) | gel |

Same assay, conditions: concentration at which the state was recorded: lowest of 30, 60, 90, 120 mM that gave a gel; 120 mM for non-gelating peptides

| Structure (SMILES) | Concentration |
| --- | --- |
| O=C(O)[C@H](Cc1ccc(O)cc1)NC(=O)[C@H](Cc1c[nH]c2ccccc12)NC(=O)[C@H](Cc1c[nH]c2ccccc12)NC(=O)[C@@H]1CCCN1 [PWWY] (H-PWWY-OH) | 120000 µM |
| O=C(O)[C@H](Cc1c[nH]c2ccccc12)NC(=O)[C@H](Cc1ccc(O)cc1)NC(=O)[C@H](Cc1c[nH]c2ccccc12)NC(=O)[C@@H]1CCCN1 [PWYW] (H-PWYW-OH) | 120000 µM |
| CC[C@H](C)[C@H](N)C(=O)N[C@H](C(=O)N[C@@H](Cc1ccccc1)C(=O)N[C@@H](Cc1c[nH]c2ccccc12)C(=O)O)C(C)C [IVFW] (H-IVFW-OH) | 120000 µM |
| C[C@@H](O)[C@H](N)C(=O)NCC(=O)N[C@@H](Cc1ccccc1)C(=O)N[C@@H](Cc1ccccc1)C(=O)O [TGFF] (H-TGFF-OH) | 120000 µM |
| C[C@H](NC(=O)[C@@H](N)CS)C(=O)N[C@@H](Cc1ccc(O)cc1)C(=O)N[C@@H](Cc1c[nH]c2ccccc12)C(=O)O [CAYW] (H-CAYW-OH) | 120000 µM |
| CC(C)C[C@H](N)C(=O)NCC(=O)N[C@H](C(=O)N[C@@H](Cc1ccccc1)C(=O)O)C(C)C [LGVF] (H-LGVF-OH) | 120000 µM |
| CC[C@H](C)[C@H](NC(=O)[C@H](Cc1ccc(O)cc1)NC(=O)[C@@H]1CCCN1C(=O)[C@@H](N)Cc1ccc(O)cc1)C(=O)O [YPYI] (H-YPYI-OH) | 120000 µM |
| CC[C@H](C)[C@H](N)C(=O)N[C@@H](CCCNC(=N)N)C(=O)N[C@H](C(=O)N[C@@H](Cc1c[nH]c2ccccc12)C(=O)O)C(C)C [IRVW] (H-IRVW-OH) | 120000 µM |
| N[C@@H](Cc1c[nH]c2ccccc12)C(=O)N[C@@H](Cc1c[nH]c2ccccc12)C(=O)N[C@@H](CS)C(=O)N1CCC[C@H]1C(=O)O [WWCP] (H-WWCP-OH) | 120000 µM |
| CC[C@H](C)[C@H](N)C(=O)N[C@@H](Cc1c[nH]cn1)C(=O)N[C@@H](Cc1ccccc1)C(=O)N[C@H](C(=O)O)C(C)C [IHFV] (H-IHFV-OH) | 120000 µM |
| CC(C)C[C@H](N)C(=O)N[C@H](C(=O)N[C@@H](Cc1c[nH]c2ccccc12)C(=O)N[C@@H](Cc1ccccc1)C(=O)O)[C@@H](C)O [LTWF] (H-LTWF-OH) | 120000 µM |
| CC(C)C[C@H](N)C(=O)N[C@@H](CCCNC(=N)N)C(=O)N[C@@H](Cc1ccccc1)C(=O)N[C@@H](Cc1c[nH]cn1)C(=O)O [LRFH] (H-LRFH-OH) | 120000 µM |
| CSCC[C@H](NC(=O)[C@H](CCSC)NC(=O)[C@H](CCSC)NC(=O)[C@@H](N)CCSC)C(=O)O [MMMM] (H-MMMM-OH) | 120000 µM |

Same assay, conditions: peptide concentration 120 mM; vial-inverting method; 1 = hydrogel, 0 = no hydrogel

| Structure (SMILES) | GELATION |
| --- | --- |
| O=C(O)[C@H](Cc1ccc(O)cc1)NC(=O)[C@H](Cc1c[nH]c2ccccc12)NC(=O)[C@H](Cc1c[nH]c2ccccc12)NC(=O)[C@@H]1CCCN1 [PWWY] (H-PWWY-OH) | 0 |
| O=C(O)[C@H](Cc1c[nH]c2ccccc12)NC(=O)[C@H](Cc1ccc(O)cc1)NC(=O)[C@H](Cc1c[nH]c2ccccc12)NC(=O)[C@@H]1CCCN1 [PWYW] (H-PWYW-OH) | 1 |
| CC[C@H](C)[C@H](N)C(=O)N[C@H](C(=O)N[C@@H](Cc1ccccc1)C(=O)N[C@@H](Cc1c[nH]c2ccccc12)C(=O)O)C(C)C [IVFW] (H-IVFW-OH) | 1 |
| C[C@@H](O)[C@H](N)C(=O)NCC(=O)N[C@@H](Cc1ccccc1)C(=O)N[C@@H](Cc1ccccc1)C(=O)O [TGFF] (H-TGFF-OH) | 1 |
| C[C@H](NC(=O)[C@@H](N)CS)C(=O)N[C@@H](Cc1ccc(O)cc1)C(=O)N[C@@H](Cc1c[nH]c2ccccc12)C(=O)O [CAYW] (H-CAYW-OH) | 0 |
| CC(C)C[C@H](N)C(=O)NCC(=O)N[C@H](C(=O)N[C@@H](Cc1ccccc1)C(=O)O)C(C)C [LGVF] (H-LGVF-OH) | 0 |
| CC[C@H](C)[C@H](NC(=O)[C@H](Cc1ccc(O)cc1)NC(=O)[C@@H]1CCCN1C(=O)[C@@H](N)Cc1ccc(O)cc1)C(=O)O [YPYI] (H-YPYI-OH) | 0 |
| CC[C@H](C)[C@H](N)C(=O)N[C@@H](CCCNC(=N)N)C(=O)N[C@H](C(=O)N[C@@H](Cc1c[nH]c2ccccc12)C(=O)O)C(C)C [IRVW] (H-IRVW-OH) | 0 |
| N[C@@H](Cc1c[nH]c2ccccc12)C(=O)N[C@@H](Cc1c[nH]c2ccccc12)C(=O)N[C@@H](CS)C(=O)N1CCC[C@H]1C(=O)O [WWCP] (H-WWCP-OH) | 0 |
| CC[C@H](C)[C@H](N)C(=O)N[C@@H](Cc1c[nH]cn1)C(=O)N[C@@H](Cc1ccccc1)C(=O)N[C@H](C(=O)O)C(C)C [IHFV] (H-IHFV-OH) | 0 |
| CC(C)C[C@H](N)C(=O)N[C@H](C(=O)N[C@@H](Cc1c[nH]c2ccccc12)C(=O)N[C@@H](Cc1ccccc1)C(=O)O)[C@@H](C)O [LTWF] (H-LTWF-OH) | 0 |
| CC(C)C[C@H](N)C(=O)N[C@@H](CCCNC(=N)N)C(=O)N[C@@H](Cc1ccccc1)C(=O)N[C@@H](Cc1c[nH]cn1)C(=O)O [LRFH] (H-LRFH-OH) | 0 |
| CSCC[C@H](NC(=O)[C@H](CCSC)NC(=O)[C@H](CCSC)NC(=O)[C@@H](N)CCSC)C(=O)O [MMMM] (H-MMMM-OH) | 1 |

Same assay, conditions: vial-inverting method; representative hydrogels pH between 7.0 to 7.5

| Structure (SMILES) | hydrogel formation (in words) |
| --- | --- |
| N[C@@H](Cc1c[nH]c2ccccc12)C(=O)N[C@@H](Cc1c[nH]c2ccccc12)C(=O)N[C@@H](CS)C(=O)N1CCC[C@H]1C(=O)O [WWCP] (H-WWCP-OH) | cannot |

Test: Transmission electron microscope (negative staining) of peptide assemblies
Conditions: TEM, negative staining with uranyl acetate, 120 kV; line of the table gives 120 mM
Experimental: We used the negative staining technique to observe the morphologies formed by peptides. A micropipette was used to load 10 μL of sample solution to a carbon-coated copper grid, and we used a piece of filter paper to remove the excess solution. After rinsing the grid with the deionized water, we used uranyl acetate to stain the sample for 1 minute and then rinsed the grid with deionized water again.

| Structure (SMILES) | Morphology |
| --- | --- |
| O=C(O)[C@H](Cc1ccc(O)cc1)NC(=O)[C@H](Cc1c[nH]c2ccccc12)NC(=O)[C@H](Cc1c[nH]c2ccccc12)NC(=O)[C@@H]1CCCN1 [PWWY] (H-PWWY-OH) | aggregates |
| O=C(O)[C@H](Cc1c[nH]c2ccccc12)NC(=O)[C@H](Cc1ccc(O)cc1)NC(=O)[C@H](Cc1c[nH]c2ccccc12)NC(=O)[C@@H]1CCCN1 [PWYW] (H-PWYW-OH) | aggregates |
| CC[C@H](C)[C@H](N)C(=O)N[C@H](C(=O)N[C@@H](Cc1ccccc1)C(=O)N[C@@H](Cc1c[nH]c2ccccc12)C(=O)O)C(C)C [IVFW] (H-IVFW-OH) | sphere |
| C[C@@H](O)[C@H](N)C(=O)NCC(=O)N[C@@H](Cc1ccccc1)C(=O)N[C@@H](Cc1ccccc1)C(=O)O [TGFF] (H-TGFF-OH) | aggregates |
| C[C@H](NC(=O)[C@@H](N)CS)C(=O)N[C@@H](Cc1ccc(O)cc1)C(=O)N[C@@H](Cc1c[nH]c2ccccc12)C(=O)O [CAYW] (H-CAYW-OH) | aggregates |
| CC(C)C[C@H](N)C(=O)NCC(=O)N[C@H](C(=O)N[C@@H](Cc1ccccc1)C(=O)O)C(C)C [LGVF] (H-LGVF-OH) | fibre |
| CC[C@H](C)[C@H](NC(=O)[C@H](Cc1ccc(O)cc1)NC(=O)[C@@H]1CCCN1C(=O)[C@@H](N)Cc1ccc(O)cc1)C(=O)O [YPYI] (H-YPYI-OH) | aggregates |
| CC[C@H](C)[C@H](N)C(=O)N[C@@H](CCCNC(=N)N)C(=O)N[C@H](C(=O)N[C@@H](Cc1c[nH]c2ccccc12)C(=O)O)C(C)C [IRVW] (H-IRVW-OH) | sphere |
| N[C@@H](Cc1c[nH]c2ccccc12)C(=O)N[C@@H](Cc1c[nH]c2ccccc12)C(=O)N[C@@H](CS)C(=O)N1CCC[C@H]1C(=O)O [WWCP] (H-WWCP-OH) | aggregates |
| CC[C@H](C)[C@H](N)C(=O)N[C@@H](Cc1c[nH]cn1)C(=O)N[C@@H](Cc1ccccc1)C(=O)N[C@H](C(=O)O)C(C)C [IHFV] (H-IHFV-OH) | sphere |
| CC(C)C[C@H](N)C(=O)N[C@H](C(=O)N[C@@H](Cc1c[nH]c2ccccc12)C(=O)N[C@@H](Cc1ccccc1)C(=O)O)[C@@H](C)O [LTWF] (H-LTWF-OH) | aggregates |
| CC(C)C[C@H](N)C(=O)N[C@@H](CCCNC(=N)N)C(=O)N[C@@H](Cc1ccccc1)C(=O)N[C@@H](Cc1c[nH]cn1)C(=O)O [LRFH] (H-LRFH-OH) | particle |
| CSCC[C@H](NC(=O)[C@H](CCSC)NC(=O)[C@H](CCSC)NC(=O)[C@@H](N)CCSC)C(=O)O [MMMM] (H-MMMM-OH) | hybrid(sphere+fibre) |

Same assay, conditions: aqueous solution or hydrogel; negative staining

| Structure (SMILES) | morphology by TEM (in words) |
| --- | --- |
| CC(C)C[C@H](N)C(=O)N[C@@H](CCCNC(=N)N)C(=O)N[C@@H](Cc1ccccc1)C(=O)N[C@@H](Cc1c[nH]cn1)C(=O)O [LRFH] (H-LRFH-OH) | aggregates with different sizes |
